Data: PMC8072890, “Aminoalkylamides of Eremomycin Exhibit an Improved Antibacterial Activity” (Pharmaceuticals, 2021)
Values after ≈ are worked out from the molar mass of the structure shown.

Columns and labels:
E. faecalis 559 = type: cell-based; settings: sensitive strain; broth dilution micromethod, CLSI; modal values (or range) of 3–5 independent tests
Source text: (§1) The antimicrobial activity of semisynthetic derivatives of eremomycin 4a–q was studied in comparison with vancomycin on a wide panel of Gram-positive bacteria sensitive (Staphylococcus aureus ATCC 29213, S. aureus R-2, S. haemoliticus 602, S. pneumoniae ATCC 6305, Enteroccus faecium 4, and E. faecalis 559) and resistant to vancomycin (S. aureus 3797, S.aureus 3798, E. faecium 2, E. faecium 3576, E. faecalis 9, E. faecalis 583, and E. gallinarum BΠ 4147), information about the strains given in Table S3. The minimum microbial inhibitory concentration (MIC) for the test compounds was determined by the broth dilution micromethod according to CLSI guidelines, and vancomycin and a standard strain S. aureus ATCC 29213 used as controls (Figure 2 and Tables S4 and S5).
(§2) Table S4. Antibacterial activity of vancomycin and derivatives 4a–q against sensitive Gram-positive bacteria.
(§3) Strain/MIC (Minimum inhibitory concentration, μg/ml)*
(§4) Compound m n R S.aureus АТСС S.aureus R-2 S.haemoliticus S.pneumoniae АТСС E. faecium 4 E. faecalis 559
(§5) *MICs are presented as modal values for 3–5 independently replicated MIC tests for each strain and for the antibiotics. In the range of the
(§6) obtained MIC values, the obtained modal values are highlighted in bold.

E. faecium 4 = type: cell-based; settings: sensitive strain; broth dilution micromethod, CLSI; modal values (or range) of 3–5 independent tests
Source text: as §1, §2, §3, §4, §5, §6

S. aureus R-2 = type: cell-based; settings: sensitive strain; broth dilution micromethod, CLSI; modal values (or range) of 3–5 independent tests
Source text: as §1, §2, §3, §4, §5, §6

S. haemoliticus 602 = type: cell-based; settings: sensitive strain; broth dilution micromethod, CLSI; modal values (or range) of 3–5 independent tests
Source text: as §1, §2, §3, §4, §5, §6

[1] = test system: Staphylococcus aureus ATCC 29213; type: cell-based; settings: vancomycin-sensitive control strain; broth dilution micromethod, CLSI; modal values (or range) of 3–5 independent tests
Source text: as §1, §2, §3, §4, §5, §6

E. faecalis 583 = type: cell-based; settings: strain resistant to vancomycin; broth dilution micromethod, CLSI; modal values (or range) of 3–5 independent tests
Source text: as §1
(§7) Table S5. Antibacterial activity of vancomycin and derivatives 4a–q against resistant Gram-positive bacteria.
(§8) Strain/MIC (minimum inhibitory concentration; μg/ml)
(§9) Compound m n R S.aureus 3797 S.aureus 3798 E. faecium 2 E. faecium 3576 E. faecalis 9 E. faecalis 583 E. gallinarum
(§10) *MICs are presented as modal values for 3–5 independently replicate MIC tests for each strain and for the antibiotics. In the range of the obtained MIC
(§11) values, the obtained modal values are highlighted in bold.

E. faecalis 9 = type: cell-based; settings: strain resistant to vancomycin; broth dilution micromethod, CLSI; modal values (or range) of 3–5 independent tests
Source text: as §1, §7, §8, §9, §10, §11

E. faecium 2 = type: cell-based; settings: strain resistant to vancomycin; broth dilution micromethod, CLSI; modal values (or range) of 3–5 independent tests
Source text: as §1, §7, §8, §9, §10, §11

E. faecium 3576 = type: cell-based; settings: strain resistant to vancomycin; broth dilution micromethod, CLSI; modal values (or range) of 3–5 independent tests
Source text: as §1, §7, §8, §9, §10, §11

E. gallinarum BΠ 4147 = type: cell-based; settings: strain resistant to vancomycin; broth dilution micromethod, CLSI; modal values (or range) of 3–5 independent tests
Source text: as §1, §7, §8, §9, §10, §11

S. aureus 3797 = type: cell-based; settings: strain resistant to vancomycin; broth dilution micromethod, CLSI; modal values (or range) of 3–5 independent tests
Source text: as §1, §7, §8, §9, §10, §11

S.aureus 3798 = type: cell-based; settings: strain resistant to vancomycin; broth dilution micromethod, CLSI; modal values (or range) of 3–5 independent tests
Source text: as §1, §7, §8, §9, §10, §11

[2] = test system: S. aureus (strain 10, clinical isolate); assay: Mouse staphylococcal sepsis model, single IV administration; type: in vivo, mice (SHK colony); settings: for Survival: single IV, 30 min after infection, n = 10
Protocol: A comparative study of the efficacy of eremomycin N-(2-((2-fluorobenzyl)amino)ethyl)amide (4e) and vancomycin was carried out in a mice staphylococcal sepsis model. Healthy female mice of the SHK colony weighing 20–22 g after two-week quarantine were randomized into groups (n = 10) and received S. aureus as the infectious agent (strain 10, clinical isolate, adapted for growth in vivo by five-fold passaging in mice). In the experiment, female mice of the SHK colony weighing 20–22 g were used. S. aureus (strain 10, clinical isolate), adapted for growth in vivo by five-fold passaging in mice, was used as the infectious agent. Initially, the lethal dose (LD100) of staphylococcus was determined for this mouse line using the intravenous infection route. The mice deaths were counted daily for 10 days. Thus, the lethal dose (LD100) was defined as 8 × 10^8 CFU/mouse. Afterwards, the mice were seated in cages of 10 heads and were infected intravenously with S. aureus at a lethal dose, and the efficacy of the tested drugs was determined by the ED50 value (i.e., the dose at which 50% of the experimental animals survive). Then, 30 min after infection, the mice were injected intravenously with eremomycin N-(2-((2-fluorobenzyl)amino)ethyl)amide (4e) at single doses from 0.1 to 2.5 mg/kg. or vancomycin at doses from 2.5 to 7.5 mg/kg. As a control dose, a group of untreated animals infected with a lethal dose of S. aureus was present in the experiment. The determination of ED50 of the tested compounds was carried out in one experiment under a single control using the Behrens method.

[3] = Acute toxicity, single IV injection in mice; type: in vivo, F1 (CBAxC57Bl) mice; settings: laboratory animals (mice), IV; LD50 acute toxicity / ED50 staphylococcal sepsis
Protocol: The F1 (CBAxC57Bl) mice (18–20 g) were randomized into groups (n = 6) and received eremomycin N-(2-((2-fluorobenzyl)amino)ethyl)amide 4e through single intravenous injections. The intact animals were used as the control. The substance was dissolved in a 5% glucose solution and was administrated in dosage ranges of 130–200 mg/kg into the tail veins of the mice. The concentration of 4e in the injected solution was 5 mg/mL.
The acute toxicity was estimated by the mortality and survival time, as well as by the body weight gain/loss, food consumption, and clinical symptoms of intoxication, including behavioral reactions. […] The LD50 values and the maximum tolerated doses (MTD = LD10) were calculated using the method of Litchfield and Wilcoxon using the StatPlus Professional 3.8.0 software.

[4] = mice, IV administration; previous investigation; cited from earlier work
Protocol: For the characterization of the therapeutic potential of the lead compound 4e, an acute toxicity test for an IV single-dose administration was also carried out (Table 2). […] The drug administration in doses of 130–190 mg/kg led to the death of some animals from 2 to 15 min after injections as a result of cardiac and respiratory arrest against the background of neurotoxicity. […] The quantitative parameters of acute toxicity (LD50 and MTD (LD10) values ...

In the case of `CN[C@H](CC(C)C)C(=O)N[C@H]1C(=O)N[C@@H](CC(N)=O)C(=O)N[C@H]2C(=O)N[C@H]3C(=O)N[C@H](C(=O)N[C@H](C(=O)O)c4cc(O)cc(O)c4-c4cc3ccc4O)[C@H](O)c3ccc(c(Cl)c3)Oc3cc2cc(c3O[C@@H]2O[C@H](CO)[C@@H](O)[C@H](O)[C@H]2O[C@H]2C[C@](C)(N)[C@H](O)[C@H](C)O2)Oc2ccc(cc2Cl)[C@H]1O` [Vancomycin, vancomycin, reference compound], the “MIC E. faecalis 559” value (E. faecalis 559) was 2 µg/mL (≈ 1.38 µM), the “MIC E. faecium 4” value (E. faecium 4) was 4 µg/mL (≈ 2.76 µM) and the “MIC S.aureus R-2” value (S. aureus R-2) was 1 µg/mL (≈ 0.69 µM). For the same molecule, the “MIC S.haemoliticus 602” value (S. haemoliticus 602) was 2 µg/mL (≈ 1.38 µM), the “MIC S.aureus ATCC 29213” value [1] was 0.25 to 0.5 µg/mL and the “MIC E. faecalis 583” value (E. faecalis 583) was 32 µg/mL (≈ 22.1 µM). For the same molecule, the “MIC E. faecalis 9” value (E. faecalis 9) was 8 µg/mL (≈ 5.52 µM), the “MIC E. faecium 2” value (E. faecium 2) was 8 µg/mL (≈ 5.52 µM) and the “MIC E. faecium 3576” value (E. faecium 3576) was > 32 µg/mL. For the same molecule, the “MIC E. gallinarum ВП 4147” value (E. gallinarum BΠ 4147) was 8 µg/mL (≈ 5.52 µM), the “MIC S.aureus 3797” value (S. aureus 3797) was 8 µg/mL (≈ 5.52 µM) and the “MIC S.aureus 3798” value (S.aureus 3798) was 8 µg/mL (≈ 5.52 µM). It also gave a Survival ([2]; dose 2.5 mg/kg) of 20%, a Survival ([2]; dose 3.5 mg/kg) of 40% and a Survival ([2]; dose 4.5 mg/kg) of 50%. The Survival ([2]; dose 5.5 mg/kg) was 80%, the Survival ([2]; dose 6.5 mg/kg) was 90% and the Survival ([2]; dose 7.5 mg/kg) was 100%. For the same molecule, the ED50 ([2]; mice infected IV with lethal dose of S. aureus (8 × 10^8 CFU/mouse), single IV dose 30 min after infection, n = 10 per group, observed 14 days, Behrens method) was 4.1 mg/kg, the “therapeutic index (TI = LD50/ED50)” value [3] was 128 and the LD50 [4] was 525 mg/kg.
